Assay results published in ChEMBL document CHEMBL6153040, “Discovery of the salicylaldehyde-based compound DDO-02267 as a lysine-targeting covalent inhibitor of ALKBH5” (Eur J Med Chem, 2025).
Active and inactive are the calls of the source. The rule behind the calls is not given here.

What was measured:
RNA demethylase ALKBH5 [1] = target: T1, RNA demethylase ALKBH5 (Homo sapiens, UniProt Q6P6C2); assay: Binding affinity to ALKBH5 in human MOLM-13 cells assessed as protection of pronase-mediated protein degradation at 12.5 to 50 uM preincubated for 30 mins followed by protease addition and measured after 10 mins by DARTS method; format: cell-based; settings: dose 12.5-50 µM, time 40.0 min
Target sequence in this assay (Q6P6C2 2-394 limits assumed): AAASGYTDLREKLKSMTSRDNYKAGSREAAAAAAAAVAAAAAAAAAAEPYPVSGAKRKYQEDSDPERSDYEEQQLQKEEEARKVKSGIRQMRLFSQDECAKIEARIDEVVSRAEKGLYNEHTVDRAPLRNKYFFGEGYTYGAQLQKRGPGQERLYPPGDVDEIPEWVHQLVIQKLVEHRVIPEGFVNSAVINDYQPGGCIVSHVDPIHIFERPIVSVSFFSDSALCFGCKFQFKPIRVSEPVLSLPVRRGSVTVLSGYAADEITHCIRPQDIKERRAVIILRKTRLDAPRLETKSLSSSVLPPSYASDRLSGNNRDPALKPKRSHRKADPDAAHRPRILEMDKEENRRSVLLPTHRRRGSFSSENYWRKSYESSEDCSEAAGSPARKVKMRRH

MOLM-13 [2] = assay: Induction of cell cycle arrest in human MOLM-13 cells assessed as accumulation of cells at S phase at 80 uM incubated for 72 hrs by flow cytometry analysis (reference value: 17.47 %); format: functional
RNA demethylase ALKBH5 [3] = target: T1, RNA demethylase ALKBH5; assay: Time-dependent inhibition of ALKBH5 (66 to 292 residues) (unknown origin) demethylation activity extracted from Escherichia coli BL21 (DE3) cells using m6A ssDNA as substrate at 1 to 10 uM by TBE-PAGE based restriction enzyme digestion assay; settings: dose 1-10 µM, time 0.5-2 hrs
Target sequence in this assay (Q6P6C2 2-394 limits assumed): as above

[4] = system: RNA demethylase ALKBH5 (Homo sapiens), Q6P6C2 [K132E]; assay: Induction of thermal stabilization of ALKBH5 K132E mutant (66 to 292 residues) (unknown origin) extracted from Escherichia coli BL21 (DE3) cells assessed as melting temperature by thermal shift assay (reference value: 47.05 degreeC)
MV4-11 = assay: Downregulation of AXL mRNA expression levels in human MV4-11 cells at 10 to 80 uM incubated for 72 hrs by qRT-PCR analysis; format: functional, cell-based; settings: dose 10-80 µM
RNA demethylase ALKBH5 [5] = target: T1, RNA demethylase ALKBH5; assay: Binding affinity to ALKBH5 (66 to 292 residues) (unknown origin) extracted from Escherichia coli BL21 (DE3) cells assessed as dissociation constant incubated for 3 hrs by MST analysis
Target sequence in this assay (Q6P6C2 whole entry): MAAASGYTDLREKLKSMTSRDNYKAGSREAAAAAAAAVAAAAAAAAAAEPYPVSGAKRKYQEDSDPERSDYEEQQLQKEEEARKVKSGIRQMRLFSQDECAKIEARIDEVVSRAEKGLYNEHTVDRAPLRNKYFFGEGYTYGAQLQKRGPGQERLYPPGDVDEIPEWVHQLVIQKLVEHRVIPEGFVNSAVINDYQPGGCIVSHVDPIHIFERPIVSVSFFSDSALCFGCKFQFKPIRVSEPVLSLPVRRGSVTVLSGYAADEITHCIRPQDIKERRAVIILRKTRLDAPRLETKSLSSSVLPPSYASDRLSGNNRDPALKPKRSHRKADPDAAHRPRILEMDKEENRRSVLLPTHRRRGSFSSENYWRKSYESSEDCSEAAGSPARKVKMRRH

RNA demethylase ALKBH5 [6] = target: T1, RNA demethylase ALKBH5; assay: Inhibition of ALKBH5 (66 to 292 residues) (unknown origin) extracted from Escherichia coli BL21 (DE3) cells using m6A ssDNA as substrate measured after 1 hrs by fluorescence polarization assay
Target sequence in this assay (Q6P6C2 whole entry): as above

MOLM-13 [7] = assay: Downregulation of AXL protein expression levels in human MOLM-13 cells at 20 to 80 uM incubated for 72 hrs by Western blot analysis; format: functional, cell-based; settings: dose 20-80 µM
[8] = target: T2, Alpha-ketoglutarate-dependent dioxygenase alkB homolog 3 (Homo sapiens) (UniProt Q96Q83); assay: Induction of thermal stabilization of ALKBH3 (unknown origin) assessed as change in melting temperature by thermal shift assay
T2 sequence (whole entry): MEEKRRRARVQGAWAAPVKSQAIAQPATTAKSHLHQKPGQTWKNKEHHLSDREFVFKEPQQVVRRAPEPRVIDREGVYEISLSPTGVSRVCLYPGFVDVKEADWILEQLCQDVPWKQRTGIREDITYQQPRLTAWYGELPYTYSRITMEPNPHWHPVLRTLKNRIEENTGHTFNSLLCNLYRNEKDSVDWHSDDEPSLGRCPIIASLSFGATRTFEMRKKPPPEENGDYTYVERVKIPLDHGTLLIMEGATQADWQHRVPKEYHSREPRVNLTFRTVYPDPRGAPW

RNA demethylase ALKBH5 [9] = target: T1, RNA demethylase ALKBH5; assay: Inhibition of ALKBH5 (66 to 292 residues) (unknown origin) extracted from Escherichia coli BL21 (DE3) cells using m6A ssDNA as substrate measured after 240 mins by fluorescence polarization assay
Target sequence in this assay (Q6P6C2 whole entry): as the sequence (Q6P6C2 whole entry) above

RNA demethylase ALKBH5 [10] = target: T1, RNA demethylase ALKBH5; assay: Inhibition of ALKBH5 (66 to 292 residues) (unknown origin) extracted from Escherichia coli BL21 (DE3) cells using m6A ssDNA as substrate incubated for 2 hrs by TBE-PAGE based restriction enzyme digestion assay
Target sequence in this assay (Q6P6C2 whole entry): as the sequence (Q6P6C2 whole entry) above

[11] = target: Alpha-ketoglutarate-dependent dioxygenase FTO (Homo sapiens, UniProt Q9C0B1); assay: Binding affinity to FTO (32 to 505 residues) (unknown origin) extracted from Escherichia coli BL21 (DE3) cells assessed as dissociation constant by ITC assay
RNA demethylase ALKBH5 [12] = target: T1, RNA demethylase ALKBH5; assay: Inhibition of ALKBH5 (66 to 292 residues) (unknown origin) extracted from Escherichia coli BL21 (DE3) cells using m6A ssDNA as substrate measured after 20 mins by fluorescence polarization assay
Target sequence in this assay (Q6P6C2 whole entry): as the sequence (Q6P6C2 whole entry) above

[13] = target: T3, Alpha-ketoglutarate-dependent dioxygenase alkB homolog 3 (Homo sapiens, UniProt Q96Q83); assay: Inhibition of ALKBH3 (unknown origin) by fluorescence polarization assay
T3 sequence (Q96Q83 whole entry): T2 sequence (whole entry)

RNA demethylase ALKBH5 [14] = target: T1, RNA demethylase ALKBH5; assay: Induction of thermal stabilization of ALKBH5 in human MOLM-13 cells at 20 uM incubated for 30 min and measured after 3 mins incubation under 45 to 65 degreeC by […] assay; format: cell-based; settings: time 33.0 min
Target sequence in this assay (Q6P6C2 2-394 limits assumed): as the sequence (Q6P6C2 2-394 limits assumed) above

MOLM-13 [15] = assay: Induction of cell cycle arrest in human MOLM-13 cells assessed as accumulation of cells at G2/M phase at 40 uM incubated for 72 hrs by flow cytometry analysis (reference value: 17.53 %); format: functional
MOLM-13 [16] = assay: Induction of cell cycle arrest in human MOLM-13 cells assessed as accumulation of cells at G0/G1 phase at 80 uM incubated for 72 hrs by flow cytometry analysis (reference value: 65.53 %); format: functional
RNA demethylase ALKBH5 [17] = target: T1, RNA demethylase ALKBH5; assay: Binding affinity to ALKBH5 (66 to 292 residues) (unknown origin) extracted from Escherichia coli BL21 (DE3) cells assessed as dissociation constant by ITC analysis
Target sequence in this assay (Q6P6C2 whole entry): as the sequence (Q6P6C2 whole entry) above

RNA demethylase ALKBH5 [18] = target: T1, RNA demethylase ALKBH5; assay: Inhibition of ALKBH5 in human MV4-11 cells assessed as increase in m6A methylation levels by dot blot assay; format: cell-based
Target sequence in this assay (Q6P6C2 2-394 limits assumed): as the sequence (Q6P6C2 2-394 limits assumed) above

RNA demethylase ALKBH5 [19] = target: T1, RNA demethylase ALKBH5; assay: Binding affinity to ALKBH5 (66 to 292 residues) (unknown origin) extracted from Escherichia coli BL21 (DE3) cells assessed as dissociation constant incubated for 4 hrs by MST analysis
RNA demethylase ALKBH5 [20] = target: T1, RNA demethylase ALKBH5; assay: Binding affinity to ALKBH5 (66 to 292 residues) (unknown origin) extracted from Escherichia coli BL21 (DE3) cells at 1:1 protein:compound ratio by mass spectrometry analysis
Target sequence in this assay (Q6P6C2 2-394 limits assumed): as above

MOLM-13 [21] = assay: Induction of apoptosis in human MOLM-13 cells assessed as viable cells at 40 uM incubated for 72 hrs by Annexin V FITC/PI staining based flow cytometry analysis (reference value: 89.65%); format: functional; settings: read-out: Activity
MOLM-13 [22] = assay: Induction of cell cycle arrest in human MOLM-13 cells assessed as accumulation of cells at S phase at 40 uM incubated for 72 hrs by flow cytometry analysis (reference value: 17.47 %); format: functional
RNA demethylase ALKBH5 [23] = target: T1, RNA demethylase ALKBH5; assay: Inhibition of ALKBH5 (66 to 292 residues) (unknown origin) extracted from Escherichia coli BL21 (DE3) cells using m6A ssDNA as substrate measured immediately by fluorescence polarization assay
RNA demethylase ALKBH5 [24] = target: T1, RNA demethylase ALKBH5; assay: Binding affinity to ALKBH5 (66 to 292 residues) (unknown origin) extracted from Escherichia coli BL21 (DE3) cells assessed as dissociation constant incubated for 5 hrs by MST analysis
RNA demethylase ALKBH5 [25] = target: T1, RNA demethylase ALKBH5; assay: Inhibition of ALKBH5 (66 to 292 residues) (unknown origin) extracted from Escherichia coli BL21 (DE3) cells using m6A ssDNA as substrate assessed as maximum inactivation rate constant (Kinact) measured after 6 hrs by fluorescence polarization assay
Target sequence in this assay (Q6P6C2 2-394 limits assumed): as above

RNA demethylase ALKBH5 [26] = target: T1, RNA demethylase ALKBH5; assay: Inhibition of ALKBH5 (66 to 292 residues) (unknown origin) extracted from Escherichia coli BL21 (DE3) cells using m6A ssDNA as substrate assessed as Kinact/Ki ratio measured after 6 hrs by fluorescence polarization assay
RNA demethylase ALKBH5 [27] = target: T1, RNA demethylase ALKBH5; assay: Induction of thermal stabilization of wild type ALKBH5 (66 to 292 residues) (unknown origin) extracted from Escherichia coli BL21 (DE3) cells assessed as melting temperature by thermal shift assay (reference value: 47.30 degreeC)

Chain of RNA demethylase ALKBH5 (Homo sapiens), Q6P6C2 [K132E] (Q6P6C2 whole entry K132E, the tested form may be a part): as the sequence (Q6P6C2 whole entry) above, with K132E counted along it
Chain of Alpha-ketoglutarate-dependent dioxygenase FTO (Q9C0B1 whole entry, the tested form may be a part): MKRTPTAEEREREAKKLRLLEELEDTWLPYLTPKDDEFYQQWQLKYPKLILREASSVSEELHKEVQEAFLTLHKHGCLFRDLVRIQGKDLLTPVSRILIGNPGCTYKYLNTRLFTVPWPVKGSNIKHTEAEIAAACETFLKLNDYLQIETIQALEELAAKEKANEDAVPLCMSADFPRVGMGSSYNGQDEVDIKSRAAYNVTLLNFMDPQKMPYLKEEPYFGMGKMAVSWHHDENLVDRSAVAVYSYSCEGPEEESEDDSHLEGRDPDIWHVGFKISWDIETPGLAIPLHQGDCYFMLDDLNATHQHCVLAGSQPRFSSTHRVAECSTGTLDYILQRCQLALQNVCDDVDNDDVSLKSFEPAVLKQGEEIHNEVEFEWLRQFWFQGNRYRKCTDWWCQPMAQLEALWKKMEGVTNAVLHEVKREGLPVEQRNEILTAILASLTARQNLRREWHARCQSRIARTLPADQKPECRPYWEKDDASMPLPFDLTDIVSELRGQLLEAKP

O=Cc1cc(S(=O)(=O)NC(=O)c2cc(C(=O)O)ccn2)c2ccccc2c1O
Activity (RNA demethylase ALKBH5 [1]): Active | Activity (MOLM-13 [2]): 4.11% | TDI (RNA demethylase ALKBH5 [3]): Active | Tm [4]: 46.1 °C | Activity (MV4-11): Active | Kd (RNA demethylase ALKBH5 [5]): 1030 nM | IC50 (RNA demethylase ALKBH5 [6]): 480 nM | Activity (MOLM-13 [7]): Active | ΔTm [8]: < 1 °C | IC50 (RNA demethylase ALKBH5 [9]): 260 nM | IC50 (RNA demethylase ALKBH5 [10]): 2530 nM | Kd [11]: 27600 nM | IC50 (RNA demethylase ALKBH5 [12]): 780 nM | IC50 [13]: 11700 nM | Activity (RNA demethylase ALKBH5 [14]): Active | Activity (MOLM-13 [15]): 26.1% | Activity (MOLM-13 [16]): 73.67% | Kd (RNA demethylase ALKBH5 [17]): 2800 nM | inhibition (RNA demethylase ALKBH5 [18]): Active | Kd (RNA demethylase ALKBH5 [19]): 650 nM | Activity (RNA demethylase ALKBH5 [20]): Active; Mass Peak Of 28,181.6 Da Observed | viability at 40 µM (MOLM-13 [21]): 83% | Activity (MOLM-13 [22]): 5.67% | IC50 (RNA demethylase ALKBH5 [23]): 1430 nM | Kd (RNA demethylase ALKBH5 [24]): 560 nM | Kinact (RNA demethylase ALKBH5 [25]): 14.2 min⁻¹ | Ratio (RNA demethylase ALKBH5 [26]): 0.03 µM⁻¹ min⁻¹ | Tm (RNA demethylase ALKBH5 [27]): 49.9 °C
